Data set [1] is described as follows: Cytotoxicity against Homo sapiens (human) […] cells at 1 uM. In kind it is cell-based.
The subject of data set [2] is THP-1. The data set can be described thus: Anti-inflammatory activity in Homo sapiens (human) THP1 cells assessed as inhibition of LPS-induced IL6 production at 1 uM incubated for 30 min prior to LPS-challenge measured after 24 hr by ELISA. Type of data set: functional.
The subject of data set [3] is THP-1. Description: Anti-inflammatory activity in Homo sapiens (human) THP1 cells assessed as inhibition of LPS-induced TNFalpha production at 1 uM incubated for 30 min prior to LPS-challenge measured after 24 hr by ELISA. Type of data set: functional.
The test system of the next data set is HCT-116. The data set can be described thus: Cytotoxicity against Homo sapiens (human) HCT116 cells at 700 nM after 48 hr by propidium iodide-based fluorometric assay. In kind it is functional. The following applies: HCT-116, 48 h, read-out: GI.
A further data set has as its system ACHN. Description: Cytotoxicity against Homo sapiens (human) ACHN cells at 700 nM after 48 hr by propidium iodide-based fluorometric assay. Type of data set: functional. The following applies: read-out: GI.
Another data set relates to Calu-1. The data set can be described thus: Cytotoxicity against Homo sapiens (human) Calu1 cells at 700 nM after 48 hr by propidium iodide-based fluorometric assay. Type of data set: functional. The following applies: Calu-1, 48 h, read-out: GI.
The nature of data set [4]: Cytotoxicity against Homo sapiens (human) H460 cells at 700 nM after 48 hr by propidium iodide-based fluorometric assay. Type of data set: functional. The following applies: NCI-H460, 48 h, read-out: GI.
In another data set the test system is PANC-1. Description: Cytotoxicity against Homo sapiens (human) PANC1 cells at 700 nM after 48 hr by propidium iodide-based fluorometric assay. Type of data set: functional. As to conditions: PANC-1, 48 h, read-out: GI.

SMILES strings stand for the structures.

Experimental findings from ChEMBL document CHEMBL3046347, “Synthesis and biological evaluation of novel curcumin analogues as anti-inflammatory, anti-cancer and anti-oxidant agents” (Med Chem Res, 2012) are described below.

In data set [1], `C[C@@H]1C[C@H]2[C@@H]3CCC4=CC(=O)C=C[C@]4(C)[C@@]3(F)[C@@H](O)C[C@]2(C)[C@@]1(O)C(=O)CO` [DEXAMETHASONE] came in with an Activity of 0%. Besides, the figures for the inhibition at 1 µM with THP-1 [2] and in the data set with THP-1 [3] were 94% and 72%, respectively.

As for `CN1CC[C@H](c2c(O)cc(O)c3c(=O)cc(-c4ccccc4Cl)oc23)[C@H](O)C1` [ALVOCIDIB], the inhibition of growth at 0.7 µM with HCT-116 was 83%; in the data set with ACHN it was 73%; with Calu-1 it was 82%; in data set [4] it was 73%; in the data set with PANC-1, 68%.
